# Measured values as given in patent US8258311B2, “Human protein tyrosine phosphatase inhibitors and methods of use” (Aerpio Therapeutics Inc., priority 2006, dated 2012).
# Experiments:
# HPTPβ = HPTPβ (Homo sapiens, UniProt P23467); test: HPTPβ inhibition (IC50); assay type: biochemical
# PTP1B = target: T1, PTP1B (Homo sapiens, UniProt P18031); test: PTP1B inhibition (IC50); assay type: biochemical
# T1 sequence (P18031 1-435): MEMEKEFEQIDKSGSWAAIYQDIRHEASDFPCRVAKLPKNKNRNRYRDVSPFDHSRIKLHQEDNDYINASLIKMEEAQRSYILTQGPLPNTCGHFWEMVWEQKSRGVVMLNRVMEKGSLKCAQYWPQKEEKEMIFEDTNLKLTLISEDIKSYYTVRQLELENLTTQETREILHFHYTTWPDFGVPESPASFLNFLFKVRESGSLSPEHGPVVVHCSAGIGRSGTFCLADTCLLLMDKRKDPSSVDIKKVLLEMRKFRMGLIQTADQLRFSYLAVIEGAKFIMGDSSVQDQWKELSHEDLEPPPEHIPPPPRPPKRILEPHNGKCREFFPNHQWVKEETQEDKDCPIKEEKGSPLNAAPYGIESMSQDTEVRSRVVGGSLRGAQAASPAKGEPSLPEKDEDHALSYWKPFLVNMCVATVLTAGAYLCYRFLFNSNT
# Chain of HPTPβ (P23467 23-1997): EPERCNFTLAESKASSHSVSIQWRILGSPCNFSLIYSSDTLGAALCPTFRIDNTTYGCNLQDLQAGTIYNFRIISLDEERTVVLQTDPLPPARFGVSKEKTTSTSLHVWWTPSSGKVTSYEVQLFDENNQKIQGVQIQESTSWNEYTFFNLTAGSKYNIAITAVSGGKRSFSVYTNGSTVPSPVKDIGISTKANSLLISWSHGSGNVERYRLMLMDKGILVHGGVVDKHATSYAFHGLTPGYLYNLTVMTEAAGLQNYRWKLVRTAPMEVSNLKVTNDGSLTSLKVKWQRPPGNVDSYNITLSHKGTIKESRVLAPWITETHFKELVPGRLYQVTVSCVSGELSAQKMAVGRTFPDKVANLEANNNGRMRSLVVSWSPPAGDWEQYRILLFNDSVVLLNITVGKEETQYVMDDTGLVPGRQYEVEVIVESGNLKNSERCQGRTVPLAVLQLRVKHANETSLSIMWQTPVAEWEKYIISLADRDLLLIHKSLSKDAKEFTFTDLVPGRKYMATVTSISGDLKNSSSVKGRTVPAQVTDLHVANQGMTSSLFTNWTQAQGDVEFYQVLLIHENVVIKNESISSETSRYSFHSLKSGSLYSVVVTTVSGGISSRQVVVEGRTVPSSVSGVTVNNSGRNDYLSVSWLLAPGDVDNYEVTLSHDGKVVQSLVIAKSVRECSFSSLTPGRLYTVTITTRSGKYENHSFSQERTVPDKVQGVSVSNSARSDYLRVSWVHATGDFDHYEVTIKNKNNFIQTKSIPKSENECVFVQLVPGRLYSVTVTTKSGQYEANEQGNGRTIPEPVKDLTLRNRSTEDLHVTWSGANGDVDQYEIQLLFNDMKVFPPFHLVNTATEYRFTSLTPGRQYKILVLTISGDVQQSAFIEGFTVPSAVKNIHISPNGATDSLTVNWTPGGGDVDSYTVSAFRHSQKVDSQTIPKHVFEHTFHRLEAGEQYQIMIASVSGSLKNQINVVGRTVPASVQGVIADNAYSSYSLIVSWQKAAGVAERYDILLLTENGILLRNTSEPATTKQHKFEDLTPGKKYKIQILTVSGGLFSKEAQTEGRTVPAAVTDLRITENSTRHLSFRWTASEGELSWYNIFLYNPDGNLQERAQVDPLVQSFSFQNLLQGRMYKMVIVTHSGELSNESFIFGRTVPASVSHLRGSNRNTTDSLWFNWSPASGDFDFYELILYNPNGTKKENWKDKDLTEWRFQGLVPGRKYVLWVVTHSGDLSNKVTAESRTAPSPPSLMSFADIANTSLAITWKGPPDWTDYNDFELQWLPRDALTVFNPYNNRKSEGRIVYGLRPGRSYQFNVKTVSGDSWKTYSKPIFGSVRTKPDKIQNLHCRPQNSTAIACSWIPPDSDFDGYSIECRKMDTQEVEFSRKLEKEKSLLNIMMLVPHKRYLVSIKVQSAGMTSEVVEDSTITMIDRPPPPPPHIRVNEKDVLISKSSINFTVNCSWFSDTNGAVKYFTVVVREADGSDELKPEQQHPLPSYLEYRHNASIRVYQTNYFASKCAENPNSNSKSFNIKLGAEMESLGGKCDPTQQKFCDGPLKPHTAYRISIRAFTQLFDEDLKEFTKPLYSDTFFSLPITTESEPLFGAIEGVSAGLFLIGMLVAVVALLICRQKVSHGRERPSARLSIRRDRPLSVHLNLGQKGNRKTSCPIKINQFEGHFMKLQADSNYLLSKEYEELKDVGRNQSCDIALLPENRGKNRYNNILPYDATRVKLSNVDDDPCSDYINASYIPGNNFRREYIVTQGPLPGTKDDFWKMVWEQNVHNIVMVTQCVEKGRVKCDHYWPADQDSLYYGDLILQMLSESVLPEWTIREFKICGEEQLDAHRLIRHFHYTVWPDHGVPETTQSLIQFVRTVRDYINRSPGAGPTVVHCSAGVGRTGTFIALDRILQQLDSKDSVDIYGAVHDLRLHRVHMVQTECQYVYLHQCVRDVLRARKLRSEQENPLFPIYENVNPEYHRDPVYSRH
IC50 (HPTPβ) [nM],IC50 (PTP1B) [nM],Compound
266,50000,CC(C)(C)C(=O)N[C@@H](Cc1ccc(NS(=O)(=O)O)cc1)c1nc(CO)cs1 [(S)-4-{2-[4-(hydroxymethyl)thiazol-2-yl]-2-pivalamidoethyl}phenyl-sulfamic acid]
132,50000,COc1cccc(Cc2csc([C@H](Cc3ccc(NS(=O)(=O)O)cc3)NC(=O)C(C)(C)C)n2)c1 [(S)-4-(2-(4-(3-Methoxybenzyl)thiazol-2-yl)-2-pivalamidoethyl)phenylsulfamic acid]
98,50500,Cc1sc([C@H](Cc2ccc(NS(=O)(=O)O)cc2)NC(=O)C(C)(C)C)nc1-c1ccccc1 [(S)-4-(2-(5-Methyl-4-phenylthiazol-2-yl)-2-pivalamidoethyl)phenylsulfamic acid]
381,28600,CC(C)(C)C(=O)N[C@@H](Cc1ccc(NS(=O)(=O)O)cc1)c1nc(-c2ccc(-c3ccccc3)cc2)cs1 [(S)-4-(2-(4-(Biphen-4-yl)thiazol-2-yl)-2-pivalamidoethyl)phenylsulfamic acid]
42,82300,CC(C)(C)C(=O)N[C@@H](Cc1ccc(NS(=O)(=O)O)cc1)c1nc(-c2ccccc2)cs1 [(S)-4-(2-(4-Phenylthiazol-2-yl)-2-pivalamidoethyl)phenylsulfamic acid]
0.157,722,CCc1csc([C@H](Cc2ccc(NS(=O)(=O)O)cc2)NC(=O)Cc2ccccc2)n1 [(S)-{4-[2-(4-Ethylthiazol-2-yl)-2-(phenylacetylamino)ethyl]-phenyl}sulfamic acid]
584,44900,CCOC(=O)c1csc([C@H](Cc2ccc(NS(=O)(=O)O)cc2)NC(=O)C(C)(C)C)n1 [(S)-4-{[2-(4-Ethoxycarbonyl)thiazol-2-yl]-2-pivalamidoethyl}phenylsulfamic acid]
20,5260,CCc1csc([C@H](Cc2ccc(NS(=O)(=O)O)cc2)NC(=O)CNC(=O)OC)n1 [(S)-4-{2-(4-Ethylthiazol-2-yl)-2-[2-(methoxycarbonylamino)acetamido]ethyl}phenylsulfamic acid]
49,33000,CC(C)(C)OC(=O)N[C@@H](Cc1ccc(NS(=O)(=O)O)cc1)c1nc(-c2ccccc2)cs1 [[1-(S)-(Phenylthiazol-2-yl)-2-(4-sulfoaminophenyl)ethyl]-carbamic acid tert-butyl ester]
113,38200,CC(C)(C)C(=O)N[C@@H](Cc1ccc(NS(=O)(=O)O)cc1)c1nc(Cc2ccccc2)cs1 [(S)-4-(2-(4-Benzylthiazol-2-yl)-2-pivalamidoethyl)phenylsulfamic acid]
85,142000,CCc1csc([C@H](Cc2ccc(NS(=O)(=O)O)cc2)NC(=O)C(C)(C)C)n1 [(S)-4-(2-(4-Ethylthiazol-2-yl)-2-pivalamidoethyl)phenyl-sulfamic acid]

# Second part, the compound before the results:
Compound,IC50 (HPTPβ) [nM],IC50 (PTP1B) [nM]
CC(C)(C)OC(=O)N[C@@H](Cc1ccc(NS(=O)(=O)O)cc1)c1nc(-c2cccc(C(F)(F)F)c2)cs1 [4-((S)-2-(tert-Butoxycarbonylamino)-2-(4-(3-(trifluoromethyl)phenyl)thiazol-2-yl)ethyl)-phenyl sulfamic acid],253,11800
CCc1csc([C@H](Cc2ccc(NS(=O)(=O)O)cc2)NC(=O)[C@@H](NC(=O)OC)C(C)C)n1 [4-{(S)-2-(4-Ethylthiazol-2-yl)-2-[(S)-2-(methoxycarbonylamino)-3-methylbutanamido]-ethyl}phenylsulfamic acid],3,1030
COC(=O)N[C@@H](Cc1ccccc1)C(=O)N[C@@H](Cc1ccc(NS(=O)(=O)O)cc1)c1nc(C2CC2)cs1 [4-{(S)-2-(4-Cyclopropylthiazol-2-yl)-2-[(S)-2-(methoxy-carbonylamino)-3-phenylpropanamido]ethyl}phenylsulfamic acid],0.01,300
CC(C)(C)OC(=O)N[C@@H](Cc1ccc(NS(=O)(=O)O)cc1)c1nc(C(C)(C)C)cs1 [(S)-4-(2-(tert-Butoxycarbonylamino)-2-(4-tert-butylthiazol-2-yl)ethyl)phenyl sulfamic acid],27,50000
COC(=O)N[C@@H](Cc1ccccc1)C(=O)N[C@@H](Cc1ccc(NS(=O)(=O)O)cc1)c1csc(CS(=O)(=O)c2ccc(Cl)cc2)n1 [4-{(S)-2-{2-[(4-Chlorophenylsulfonyl)methyl]thiazol-4-yl}-2-[(S)-2-(methoxycarbonylamino)-3-phenylpropanamido]ethyl}phenylsulfamic acid],0.08,2540
CC(C)(C)OC(=O)N[C@@H](Cc1ccc(NS(=O)(=O)O)cc1)c1ncc(-c2ccccc2)s1 [(S)-4-(2-(tert-Butoxycarbonylamino)-2-(5-phenylthiazol-2-yl)ethyl)-phenyl sulfamic acid],308,11400
CCc1nc([C@H](Cc2ccc(NS(=O)(=O)O)cc2)NC(=O)[C@H](Cc2ccccc2)NC(=O)OC)cs1 [4-{(S)-2-[(S)-2-(Methoxycarbonylamino)-3-phenylpropanamido]-2-(2-ethylthiazol-4-yl)ethyl}phenylsulfamic acid],0.1,1010
CCc1nc([C@H](Cc2ccc(NS(=O)(=O)O)cc2)NC(=O)[C@H](Cc2ccccc2)NC(=O)OC)sc1C [4-{(S)-2-(4-Ethyl-5-methylthiazol-2-yl)-2-[(S)-2-(methoxy-carbonylamino)-3-phenyl-propanamido]ethyl}phenylsulfamic acid],0.1,1120
CC(C)(C)OC(=O)N[C@@H](Cc1ccc(NS(=O)(=O)O)cc1)c1nc(-c2ccsc2)cs1 [4-((S)-2-(tert-Butoxycarbonylamino)-2-(4-(thiophen-3-yl)thiazol-2-yl)ethyl)phenyl sulfamic acid],45,14600
"COC(=O)N[C@@H](Cc1ccccc1)C(=O)N[C@@H](Cc1ccc(NS(=O)(=O)O)cc1)c1nc(CCC(F)(F)F)cs1 [4-{(S)-2-[(S)-2-(Methoxycarbonylamino)-3-phenylpropanamido)-2-[4-(3,3,3-trifluoropropyl)thiazol-2-yl]ethyl}phenylsulfamic acid]",0.08,120
CCc1csc([C@H](Cc2ccc(NS(=O)(=O)O)cc2)NC(=O)[C@H](Cc2ccccc2)NC(=O)OC)n1 [4-{(S)-2-(4-Ethylthiazol-2-yl)-2-[(S)-2-(methoxycarbonylamino)-3-phenylpropanamido]ethyl}phenylsulfamic acid],0.162,490
CCCc1csc([C@H](Cc2ccc(NS(=O)(=O)O)cc2)NC(=O)[C@H](Cc2ccccc2)NC(=O)OC)n1 [4-{(S)-2-[(S)-2-(Methoxycarbonylamino)-3-phenylpropanamido]-2-(4-propylthiazol-2-yl)ethyl}phenylsulfamic acid],0.1,1030
COC(=O)N[C@@H](Cc1ccccc1)C(=O)N[C@@H](Cc1ccc(NS(=O)(=O)O)cc1)c1nc(C)cs1 [4-{(S)-2-[(S)-2-(Methoxycarbonylamino)-3-phenylpropanamido]-2-(4-methylthiazol-2-yl)ethyl}phenylsulfamic acid],1,480
COC(=O)N[C@@H](Cc1ccccc1)C(=O)N[C@@H](Cc1ccc(NS(=O)(=O)O)cc1)c1csc(C2CC2)n1 [4-{(S)-2-(2-Cyclopropylthiazol-4-yl)-2-[(S)-2-(methoxy-carbonylamino)-3-phenylpropanamido]ethyl}phenylsulfamic acid],0.2,1350
"COC(=O)N[C@@H](Cc1ccccc1)C(=O)N[C@@H](Cc1ccc(NS(=O)(=O)O)cc1)c1nc2c(s1)CCCC2 [4-{(S)-2-[(S)-2-(Methoxycarbonylamino)-3-phenylpropanamido]-2-(4,5,6,7-tetrahydrobenzo[d]thiazol-2-yl)ethyl}phenylsulfamic acid]",0.4,89
COC(=O)N[C@@H](Cc1ccccc1)C(=O)N[C@@H](Cc1ccc(NS(=O)(=O)O)cc1)c1nc(-c2ccsc2)cs1 [4-{(S)-2-[(S)-2-(Methoxycarbonylamino)-3-phenylpropanamido]-2-[4-(thiophen-3-yl)thiazol-2-yl]ethyl}phenylsulfamic acid],0.09,440
COC(=O)N[C@@H](Cc1ccccc1)C(=O)N[C@@H](Cc1ccc(NS(=O)(=O)O)cc1)c1csc(-c2cnccn2)n1 [4-{(S)-2-[(S)-2-(Methoxycarbonylamino)-3-phenylpropanamido]-2-[2-(pyrazin-2-yl)thiazol-4-yl]ethyl}phenylsulfamic acid],3,295
COC(=O)N[C@@H](Cc1ccccc1)C(=O)N[C@@H](Cc1ccc(NS(=O)(=O)O)cc1)c1nc(C(C)(C)C)cs1 [4-{(S)-2-(4-tert-Butylthiazol-2-yl)-2-[(S)-2-(methoxycarbonylamino)-3-phenylpropanamido]ethyl}phenylsulfamic acid],0.2,708
CCc1csc([C@H](Cc2ccc(NS(=O)(=O)O)cc2)NC(=O)[C@H](CC(C)C)NC(=O)OC(C)(C)C)n1 [4-{(S)-2-[(S)-2-(tert-Butoxycarbonylamino)-4-methylpentanamido]-2-(4-ethylthiazol-2-yl)ethyl}phenylsulfamic acid],1,480
COCc1csc([C@H](Cc2ccc(NS(=O)(=O)O)cc2)NC(=O)OC(C)(C)C)n1 [(S)-4-(2-(tert-Butoxycarbonylamino)-2-(4-(methoxymethyl)thiazol-2-yl)ethyl)-phenyl sulfamic acid],180,27600
